Laboratory results taken from patent US20040009195A1, “Modified sialic acid vaccines” (priority 2003, published 2004).

Test system: SK-Mel-28 human melanoma cells
Test: Expression of modified GD3 after incubation with modified precursors (flow cytometry, CE-MS)
Format: cell-based
Settings: 1 mg/ml precursor concentration; in agreement with flow cytometry
Protocol: SK-Mel-28 human melanoma cells normally expressing GD3 were incubated with modified sialic acid precursors. The modified sialic acid precursors used were N-acylated Mannosamines(“ManNAc”), including: N-propionyl mannosamine (“ManNPr”), N-butyril mannosamine (“ManNBu”), and N-benzoyl mannosamine (“ManNBz”).
The incorporation and metabolism of the surface GD3 antigen were also investigated. […] Modified GD3 on SK-Mel-28 cells in vitro was still found 10 days after removal of precursors from the growth medium, when two populations of antigens, unmodified and modified GD3 were detected by mAb R24 and respective antiserum.
The relative quantity of modified and unmodified GD3 expressed on the SK-Mel-28 was analysed by capillary electrophoresis-mass spectroscopy (“CE-MS”). The glycolipids extracted from cells grown in various concentrations of ManNBu were separated by capillary electrophoresis and negative charged glycolipids were detected. GD3 was the dominant ganglioside found in SK-Mel-28 cells. When ManNBu was added to the medium, the modified GD3 was biosynthesized and expressed.

CCCC(=O)N[C@@H]1C(O)O[C@H](CO)[C@@H](O)[C@@H]1O (stereo partly shown) [ManNBu, N-butyril mannosamine]
Relative expression of modified GD3 by CE-MS: well expressed
